Results as given in ChEMBL document CHEMBL1157523, “Synthesis and in vivo evaluation of 11-substituted estradiol derivatives as anti-implantation agents” (2008).
Calls of active or inactive are those of the source. The rule behind the calls is not given here.

Legend:
Assay type in all cases: functional
Rattus norvegicus [1] = experiment: Antiimplantation activity against Sprague-Dawley albino rat at 10 mg/kg, po administered for 1-5 days measured on day 10 of pregnancy relative to control
Rattus norvegicus [2] = experiment: Antiimplantation activity against Sprague-Dawley albino rat at 1.25 mg/kg, po administered for 1-5 days measured on day 10 of pregnancy relative to control
Rattus norvegicus [3] = experiment: Antiimplantation activity against Sprague-Dawley albino rat at 5 mg/kg, po administered for 1-5 days measured on day 10 of pregnancy relative to control
Rattus norvegicus [4] = experiment: Antiimplantation activity against Sprague-Dawley albino rat at 1 mg/kg, po administered for 1-5 days measured on day 10 of pregnancy relative to control
Rattus norvegicus [5] = experiment: Antiimplantation activity against Sprague-Dawley albino rat at 2.5 mg/kg, po administered for 1-5 days measured on day 10 of pregnancy relative to control
Rattus norvegicus [6] = experiment: Antiimplantation activity against Sprague-Dawley albino rat at 2 mg/kg, po administered for 1-5 days measured on day 10 of pregnancy relative to control
Rattus norvegicus [7] = experiment: Antiimplantation activity against Sprague-Dawley albino rat at 1.5 mg/kg, po administered for 1-5 days measured on day 10 of pregnancy relative to control

Compound | Activity (Rattus norvegicus [1]) [%] | Activity (Rattus norvegicus [2]) [%] | Activity (Rattus norvegicus [3]) [%] | Activity (Rattus norvegicus [4]) [%] | Activity (Rattus norvegicus [5]) [%] | Activity (Rattus norvegicus [6]) | Activity (Rattus norvegicus [7]) [%]
COc1ccc2c(c1)CCC1=C2C(O)(Cc2ccccc2)C[C@]2(C)[C@@H](O)CC[C@@H]12 (stereo partly specified) | 100 | – | – | – | – | – | –
CCC1(O)C[C@]2(C)[C@@H](O)CC[C@H]2C2=C1c1ccc(OC)cc1CC2 (stereo partly specified) | 100 | 100 | 100 | 50 | 100 | – | –
COc1ccc2c(c1)CCC1=C2C(=O)C[C@]2(C)[C@@H](O)CC[C@@H]12 | 100 | – | 100 | – | – | inactive | –
C=CCC1(O)C[C@]2(C)[C@@H](OC(C)=O)CC[C@H]2C2=C1c1ccc(OC)cc1CC2 (stereo partly specified) | 100 | – | – | – | – | – | –
C=CCC1=C[C@]2(C)[C@@H](O)CC[C@H]2C2=C1c1ccc(OC)cc1CC2 | 100 | – | – | – | – | – | –
COc1ccc2c(c1)OC(C)(C)C(c1ccccc1)C2c1ccc(OCCN2CCCC2)cc1 (stereo unspecified) [ORMELOXIFENE] | 100 | – | – | 100 | – | – | –
C=CCC1(O)C[C@]2(C)[C@@H](O)CC[C@H]2C2=C1c1ccc(OC)cc1CC2 (stereo partly specified) | 100 | – | 100 | 60 | – | 100% | 60
COc1ccc2c(c1)CCC1=C2C(C)(O)C[C@]2(C)[C@@H](O)CC[C@@H]12 (stereo partly specified) | 100 | – | 100 | – | – | 100% | –
